{"source": "patent US8242056B2", "about": "“Agriculture actives delivery composition comprising boron and persulfate ion-crosslinked polyvinyl alcohol microcapsules and method of use thereof” (Appleton Papers Inc., priority 2008, dated 2012)", "origin": "cited, not measured here", "key": {"[1]": {"details": "half ionized and half un-ionized at its pKa"}}, "note": "Read-outs that look alike come from different tables or passages of the source.", "data": [{"smiles": "COc1cc(OC)nc(NC(=O)NS(=O)(=O)c2ncccc2C(=O)N(C)C)n1", "note": "[nicosulfuron]", "values": [{"measurement": "pKa", "setting": "[1]", "value": 4.3}, {"measurement": "Water solubility", "setting": "pH5", "value": 360, "unit": "ppm"}, {"measurement": "Water solubility", "setting": "pH 6.9", "value": "12,200 ppm"}, {"measurement": "Water solubility", "setting": "pH 8.8", "value": "29,200 ppm"}]}]}
